Measured values from patent US20130252983A1, “ACTIVATING PHOSPHORYLATION SITE ON GLUTAMINASE C” (CORNELL UNIVERSITY, priority 2010, published 2013).
Entries after “also recorded” stand apart in the source; their conditions may differ.

What was measured:
[1] = system: NIH 3T3 cells stably expressing Cdc42(F28L), Rac(F28L), RhoC(F30L); assay: Invasion through growth factor-reduced Matri-gel; type: cell-based, mouse; details: 10 μM, 24 hours
Protocol: (§1) FIGS. 2A-G illustrate effects of 968 on the transforming activity of constitutively active Rho GTPases and human breast cancer cells. […] Cells were scored after 14 days and plotted as the percentage of the total number of colonies greater than 50 μm in diameter. Data represent the average of 3 experiments (±s.d.). […] Data represent the average of 3 experiments (±s.d.). […] Data represent the average of 3 experiments (±s.d.). […] After 24 hours at 37° C., the migratory cells were fixed, stained with GIEMSA, and counted. Data represent the average of 3 experiments (±s.d.). […] Data represent the average of 3 experiments (±s.d.). […] Data represent the average of 3 experiments (±s.d.). […] Data represent the average of 3 experiments (±s.d.).

[2] = system: SKBR3 cells; assay: Growth to high density and in low serum, SKBR3; type: cell-based, human; details: 10 μM
Protocol: as §1
100%=620 moles of glutamine hydrolyzed per minute per mole of enzyme. Data represent the average of 3 experiments (±s.d.). […] Following precipitation of the beads and re-suspension, the samples were analyzed by Western blotting with anti-V5 antibody. […] Data represent the average of 3 experiments (±s.d.). […] Data represent the average of 3 experiments (±s.d.). […] Data represent the average of 3 experiments (±s.d.). FIG. 3E NIH 3T3 cells transiently expressing Dbl were assayed for focus formation in the presence of 10 μM 968 alone or together with 7 mM dimethyl α-ketoglutarate. […] 100%=680 nM glutamine hydrolyzed per minute per 10^5 cells. […]

[3] = system: MDA-MB231 cells; assay: Soft-agar colony formation, MDA-MB231; type: cell-based, human; details: 10 μM
Protocol: as §1

[4] = target: T1, V5-tagged wild-type GAC (Mus musculus, UniProt D3Z7P3); assay: Glutaminase activity of V5-GAC immunoprecipitated from treated Dbl-transformed cells; type: cell-based; details: 10 μM, 48 hours
T1 construct: expressed in transfected cells; host or cells: NIH 3T3 cells (stably expressing Dbl, or parental), transient transfection
T1 sequence (D3Z7P3 55-603 isoform D3Z7P3-2 limits assumed): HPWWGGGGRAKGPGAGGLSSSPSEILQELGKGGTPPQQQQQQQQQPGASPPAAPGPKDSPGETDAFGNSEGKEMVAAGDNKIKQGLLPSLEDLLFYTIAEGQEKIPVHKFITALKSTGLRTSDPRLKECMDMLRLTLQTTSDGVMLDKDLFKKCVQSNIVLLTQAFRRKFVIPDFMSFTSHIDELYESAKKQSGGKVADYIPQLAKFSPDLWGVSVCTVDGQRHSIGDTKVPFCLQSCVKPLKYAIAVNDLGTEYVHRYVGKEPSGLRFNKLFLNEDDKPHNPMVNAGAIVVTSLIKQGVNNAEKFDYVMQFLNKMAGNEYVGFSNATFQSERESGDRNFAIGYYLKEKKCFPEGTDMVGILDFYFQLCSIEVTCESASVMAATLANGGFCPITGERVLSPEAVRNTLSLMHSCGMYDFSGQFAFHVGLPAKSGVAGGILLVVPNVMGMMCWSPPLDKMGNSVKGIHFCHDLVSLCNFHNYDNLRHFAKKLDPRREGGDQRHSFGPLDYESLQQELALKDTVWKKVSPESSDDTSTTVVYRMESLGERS
Source text: (§2) FIGS. 4A-E illustrate the role of glutaminase C activity in cellular transformation. […] Data represent the average of 3 experiments (±s.d.). […] Data represent the average of 3 experiments (±s.d.). […] 100% represents the activity measured in untreated Dbl-transformed cells. The data represent the average of 2 experiments. […] 100% represents the activity measured in untreated SKBR3 cells. The data represent the average of 2 experiments. […] Data represent the average of 3 experiments (±s.d.).
NIH 3T3 cells stably expressing oncogenic Dbl were transiently transfected with DNA encoding VS-tagged GAC, and cells were treated with either 968 or BA-968 (10 μM) as indicated for 48 hours. The cells were then harvested and the ectopically expressed GAC was isolated by immunoprecipitation via the V5 tag. The samples were then assayed for glutaminase activity in the absence of phosphate (top panel) and the relative expression levels of V5-GAC was determined by Western blotting using an anti-V5 antibody (bottom panel).
Next the effect of the substitution of an alanine for a serine at amino acid 103 on the enzymatic activity of GAC was examined, as well as its sensitivity to the small molecule, 968. […] Following transfection, the cells were treated for 48 hours with 968 (10 μM) and then harvested. […]

[5] = system: NIH 3T3 cells stably expressing Cdc42(F28L) and transiently expressing mouse GAC; assay: Focus formation of Cdc42(F28L) cells transiently expressing GAC; type: cell-based
Source text: as §2

[6] = system: HMECs; assay: Growth of normal human mammary epithelial cells; type: cell-based; details: 10 μM, MEGM complete medium, 6 days

CN(C)c1ccc(C2Nc3ccc4ccccc4c3C3=C2C(=O)CC(C)(C)C3)cc1Br (centres unmarked) [Compound 968, 5-[3-bromo-4-(dimethylamino)phenyl]-2,2-dimethyl-2,3,5,6-tetrahydrobenzo[a]]
invasive activity [1]: inhibiting their invasive activity
growth in low serum ([2]; 1% fetal bovine serum): inhibits their growth
growth to high density ([2]; 10% fetal bovine serum, 6 days): inhibits their growth
colony formation in soft agar [3]: inhibits the ability
basal glutaminase activity of wild-type GAC [4]: susceptible to treatment
GA activity of immunoprecipitated V5-GAC ([4]; absence of phosphate): inhibited; also recorded: effective inhibitors of GAC activity
focus-forming activity [5]: can be blocked
effect on growth of HMECs [6]: little effect
